Five compounds from ChEMBL document CHEMBL1201862, “PubChem BioAssay data set” (2004) can be followed below.

Among the test systems are EKVX; IGROV-1; UACC-257; NCI-H522; SK-MEL-28; RPMI-8226; Malme-3M; HT-29; DLD-1; RXF 393; CCRF-CEM; A498; SF-295; SNB-75; U-251; MDA-MB-435; MDA-MB-231; HOP-92; LXFL 529.
What all share (assay): inhibition of tumour cell growth, NCI panel, 48 h

SMILES strings stand for the structures.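 A five-concentration, 48-hour dose response in 96-well plates underlies each endpoint, interpolated linearly between surrounding concentrations. GI50 = concentration required for 50% inhibition of growth.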 Calls of active or inactive are those of the source. Cut-off read from the data, not from the text of the source: active = GI50 up to about 1.1 µM and inactive = higher. Where only a bound is given, the exact number is not on record here.

As to `C[N+](C)(C)CC(=O)N/N=C(/Cc1cc(=O)oc2cc(O)ccc12)C(=O)Nc1ccc(Cl)cc1`, the GI50 in the assay on EKVX, in the assay with IGROV-1, with UACC-257, in the assay with NCI-H522, with SK-MEL-28 and in the assay on RPMI-8226 was > 100 µM (inactive) each time. Further, the GI50 in the assay on Malme-3M, in the assay on HT-29, in the assay with DLD-1, with RXF 393, with CCRF-CEM and with A498 was > 100 µM (inactive) each time. For the same compound, in the assay with SF-295, the GI50 is > 100 µM (inactive).

For `O=S(=O)(c1ccccc1)[C@H]1[C@@H]2O[C@@H]2C[C@@H]1O`, the GI50 is > 100 µM (inactive) in the assay on EKVX; > 100 µM (inactive) in the assay on IGROV-1; 47.4 µM (inactive) in the assay with SNB-75; > 100 µM (inactive) in the assay with UACC-257; > 100 µM (inactive) in the assay with NCI-H522; > 100 µM (inactive) in the assay on U-251. The GI50 with SK-MEL-28, in the assay on RPMI-8226, with Malme-3M, in the assay with HT-29, in the assay on RXF 393 and with CCRF-CEM was > 100 µM (inactive) each time. In addition, the GI50 with MDA-MB-435, in the assay with A498, in the assay with MDA-MB-231, in the assay on SF-295 and in the assay with HOP-92 was > 100 µM (inactive) throughout.

Take `COc1ccc(C(=O)/C=C/c2cc(O)c(O)cc2F)c(OC)c1`: the GI50 with EKVX is 14.4 µM (inactive); in the assay with IGROV-1, 7.96 µM (inactive); in the assay with SNB-75, 4.67 µM (inactive); in the assay with UACC-257, 10.5 µM (inactive); in the assay on NCI-H522, 0.354 µM (active); with U-251 it was 5.45 µM (inactive). Further, the GI50 in the assay on SK-MEL-28 is 11.8 µM (inactive); in the assay on RPMI-8226, 3.34 µM (inactive); in the assay on Malme-3M, 7.71 µM (inactive); in the assay on HT-29, 7.48 µM (inactive); in the assay on RXF 393 it was 9.68 µM (inactive); in the assay on CCRF-CEM it was 0.783 µM (active). Further, the GI50 is 2.9 µM (inactive) in the assay on MDA-MB-435; 12.1 µM (inactive) in the assay with A498; 13.6 µM (inactive) with MDA-MB-231; 5.65 µM (inactive) in the assay with SF-295; 50.1 µM (inactive) in the assay with HOP-92.

As to `CCOC(=O)C1(C(=O)OCC)C[C@H](C)[C@](C)(O)C1`, the GI50 in the assay with EKVX, in the assay on IGROV-1, in the assay on SNB-75, with UACC-257, in the assay on NCI-H522 and in the assay on U-251 was > 100 µM (inactive) in each case. The GI50 in the assay with SK-MEL-28, in the assay on RPMI-8226, with Malme-3M, with HT-29, in the assay with RXF 393 and in the assay on CCRF-CEM was > 100 µM (inactive) each time. The GI50 in the assay on MDA-MB-435, in the assay on A498, in the assay with MDA-MB-231, in the assay on SF-295 and in the assay with HOP-92 was > 100 µM (inactive) in each case.

Regarding `COC(=O)C1CC2C=CC=CC(=O)C2(C)C1` (configuration not stated), the GI50 in the assay on EKVX is > 100 µM (inactive); in the assay on IGROV-1 it was > 100 µM (inactive); with UACC-257, 38.7 µM (inactive); in the assay on NCI-H522, > 10 µM (inactive); in the assay with U-251, > 100 µM (inactive); in the assay with RPMI-8226, 22.6 µM (inactive). The GI50 in the assay on Malme-3M is 49.7 µM (inactive); in the assay on HT-29, 40 µM (inactive); in the assay on DLD-1, 15.6 µM (inactive); in the assay on CCRF-CEM, 21.6 µM (inactive); in the assay on A498, 36.2 µM (inactive); in the assay on SF-295 it was 53.6 µM (inactive). Further, the GI50 in the assay on LXFL 529 is 31.2 µM (inactive).
